Experiments:
Assay type in all cases: cell-based, human
[1] = system: cell structure including vascular endothelial cells and tissue product including no vascular endothelial cell; experiment: Evaluation of effect of uptake inhibitor for fatty acid (BODIPY-modified fatty acid fluorescence); settings: 100 ng/mL TNFα in DMEM with 4 μM BODIPY-modified fatty acid; day 14; 0, 5, 30, 60 minutes; with and without vascular endothelial cells; control without TNFα defined as 100%; FIG. 18
Method: A cell structure including vascular endothelial cells and a tissue product including no vascular endothelial cell were produced in the same manner as in Test Example 10, and evaluation was carried out with the cell structure and tissue product on day 14 after the beginning of formation thereof sCMF produced by using a sponge fragment of porcine skin-derived collagen I was used.
Into DMEM culture medium containing 4 μM BODIPY-modified fatty acid in place of NBD-modified glucose in (Evaluation of Glucose Uptake) of Test Example 10, 100 ng/mL TNFα as an uptake inhibitor for fatty acid was introduced. The cell structure including vascular endothelial cells and the tissue product including no vascular endothelial cell were each incubated, and fluorescence measurement was carried out after 0 minutes, 5 minutes, 30 minutes, and 60 minutes in the same manner as in Test Example 10. The number of samples for each treatment was 5 (n=5), and fatty acid uptake in the same control culture medium as in Test Example 10, which contained no TNFα, was defined as 100%.

[2] = system: tissue product including no vascular endothelial cell; experiment: Evaluation of glucose uptake (NBD-modified glucose fluorescence) with uptake inhibitor and promoter; settings: 125 μM apigenin and/or 10 μg/mL insulin in DMEM with 0.1 mg/mL NBD-modified glucose; day 7 tissue product; 20-135 minutes; control medium defined as 100%; FIG. 16/17(a)
Method: A cell structure provided with a vascular network was produced with the same procedure as in Test Example 2, except that 6500 cells of mature adipocytes, 5500 cells of adipose stem cells, 2750 cells of vascular endothelial cells, 0.025 mg of the defibered collagen component (sCMF), 0.015 mg of fibrinogen, and 0.007 U of thrombin were used per tissue. The materials were prepared for 96 wells all at once to afford a gel, which was seeded on each well of a 96-well plate. […] The cell structures were incubated, and fluorescence measurement was carried out after 10 minutes, 30 minutes, 60 minutes, 120 minutes, and 150 minutes. Before the measurement at each timing, the culture medium for a cell structure to be subjected to measurement was substituted with 300 μL of PBS buffer, and the fluorescence was measured with a plate reader (Synergy HTX, manufactured by BioTek Instruments, Inc.) to determine the cumulative value of fluorescence intensity in the image. […] The tissue product was incubated, and fluorescence measurement was carried out after 20 minutes, 45 minutes, 70 minutes, 90 minutes, and 135 minutes in the same manner as in Test Example 10. […]

[3] = system: tissue product including no vascular endothelial cell; experiment: Evaluation of fatty acid uptake (BODIPY-modified fatty acid fluorescence) with uptake promoter; settings: 10 μg/mL insulin in DMEM with 4 μM BODIPY-modified fatty acid; day 7 tissue product; 5, 30, 60 minutes; control without insulin defined as 100%; FIG. 17(b)
Method: A tissue product including no vascular endothelial cell was produced in the same manner as in Test Example 10, and evaluation was carried out with the tissue product on day 7 after the beginning of formation thereof sCMF produced by using a mixture of a sponge fragment of porcine skin-derived collagen I and a sponge fragment of porcine skin-derived collagen III was used.
A tissue product was incubated in the same manner as in Test Example 10, except that, in place of NBD-modified glucose in Test Example 10, 4 μM BODIPY-modified fatty acid (Invitrogen (R) BODIPY (R) 500/510 Cl, C12 (4,4-Difluoro-5-Methyl-4-Bora-3a,4a-Diaza-s-Indacene-3-Dodecanoi c Acid), Thermo Fisher Scientific) was added to DMEM culture medium, and fluorescence measurement was carried out after 5 minute, 30 minutes, and 60 minutes. Further, 10 μg/mL insulin was added to the DMEM culture medium containing 4 μM BODIPY-modified fatty acid, and fluorescence measurement was carried out in the same manner.
The number of samples for each treatment was 5 (n=5), and fatty acid uptake in the same control culture medium as in Test Example 10, which contained no insulin, was defined as 100%.

[4] = system: tissue product including no vascular endothelial cell; experiment: Evaluation of release of glucose and fatty acid taken up, with release promoter; settings: 2 mM isoproterenol, then 30 minutes incubation, day 14 tissue product
Method: A tissue product was produced in the same manner as for the cell structure in Test Example 10, except that no vascular endothelial cell was included, and evaluation was carried out with the tissue product on day 14 after the beginning of formation thereof.
In order to measure the amount of release of glucose once taken up, incubation was performed on DMEM culture medium supplemented with 0.1 mg/mL NBD-modified glucose as in Test Example 10 for 60 minutes, and then the culture medium was substituted again with 300 μL of DMEM culture medium supplemented with NBD-modified glucose, or with 300 μL of DMEM culture medium supplemented with 2 mM isoproterenol and NBD-modified glucose. Thereafter, incubation was performed for 30 minutes to allow glucose to be released from the cellular tissue, and fluorescence measurement was carried out. […]
The number of samples for each treatment was 5 […], fluorescence intensity for the tissue product with the culture medium containing no isoproterenol was defined as 100%, and what % of the amount of uptake was released was determined by comparing with fluorescence intensity for the tissue product with the culture medium containing isoproterenol. […]

TNFα
amount of uptake of fatty acid [1]: reduced

O=c1cc(-c2ccc(O)cc2)oc2cc(O)cc(O)c12 [apigenin]
amount of uptake of glucose [2]: reduced

Insulin from bovine pancreas
amount of fatty acid uptake [3]: promoted | amount of uptake of glucose [2]: increased

CC(C)NCC(O)c1ccc(O)c(O)c1 (stereo not drawn) [isoproterenol]
release of fatty acid taken up ([4]; 60 minutes uptake of BODIPY-modified fatty acid, FIG. 19(b)): promoted | release of glucose taken up ([4]; 60 minutes uptake of NBD-modified glucose, FIG. 19(a)): promoted
